# Data: US10421761B2, “Compounds for kinase modulation, and indications therefor” (Plexxikon Inc., priority 2013, dated 2019)
# Tested on: B9 cells
# Settings: Repl. 1; B9 cells
compound,measurement,value
CCCS(=O)(=O)Nc1ccc(F)c(C(=O)c2c[nH]c3ncc(-c4ccc(Cl)cc4)cc23)c1F [vemurafenib],"probe 1426300_at response, Alcam (activated leukocyte cell adhesion molecule)",2.35
same,"probe 1426306_a_at response, LOC100046560 /// Maged2 (similar to melanoma antigen family D, 2 /// melanoma antigen, family D, 2)",2.18
same,"probe 1426708_at response, Antxr2 (anthrax toxin receptor 2)",2.19
same,"probe 1426806_at response, Obfc2a (oligonucleotide/oligosaccharide-binding fold containing 2A)",2.33
same,"probe 1426848_at response, LOC100047481 /// Sec24b (similar to SEC24 related gene family, member B (S. cerevisiae) /// Sec24 related gene family, member B (S. cerevisiae))",0.69
same,"probe 1426972_at response, Sec24d (Sec24 related gene family, member D (S. cerevisiae))",2.06
same,"probe 1427278_at response, Clip4 (CAP-GLY domain containing linker protein family, member 4)",1.98
same,"probe 1427364_a_at response, Odc1 (ornithine decarboxylase, structural 1)",2.73
same,"probe 1427512_a_at response, Lama3 (laminin, alpha 3)",2.61
same,"probe 1427527_a_at response, Pthlh (parathyroid hormone-like peptide)",2.73
same,"probe 1427885_at response, Pold4 (polymerase (DNA-directed), delta 4)",2.20
same,"probe 1428114_at response, Slc14a1 (solute carrier family 14 (urea transporter), member 1)",2.61
same,"probe 1428195_at response, Ahcyl2 (S-adenosylhomocysteine hydrolase-like 2)",2.42
same,"probe 1428228_at response, Pgm3 (phosphoglucomutase 3)",2.18
same,"probe 1428419_at response, 5430411K18Rik (RIKEN cDNA 5430411K18 gene)",2.16
same,"probe 1428851_at response, 1300014I06Rik (RIKEN cDNA 1300014I06 gene)",2.30
same,"probe 1429700_at response, 3110040M04Rik (RIKEN cDNA 3110040M04 gene)",3.18
same,"probe 1429844_at response, 2310043J07Rik (RIKEN cDNA 2310043J07 gene)",0.52
same,"probe 1430010_at response, Ncapd2 (non-SMC condensin I complex, subunit D2)",0.43
same,"probe 1430567_at response, Spink5 (serine peptidase inhibitor, Kazal type 5)",0.46
same,"probe 1430623_s_at response, Obfc2a (oligonucleotide/oligosaccharide-binding fold containing 2A)",2.11
same,"probe 1430700_a_at response, Pla2g7 (phospholipase A2, group VII (platelet-activating factor acetylhydrolase, plasma))",2.36
same,"probe 1431416_a_at response, Jam2 (junction adhesion molecule 2)",2.12
same,"probe 1431422_a_at response, Dusp14 (dual specificity phosphatase 14)",2.14
same,"probe 1431611_a_at response, Cadm1 (cell adhesion molecule 1)",2.15
same,"probe 1431688_at response, LOC73899 (hypothetical LOC73899)",2.56
same,"probe 1431691_a_at response, Rab31 (RAB31, member RAS oncogene family)",1.98
same,"probe 1433909_at response, Syt17 (synaptotagmin XVII)",2.02
same,"probe 1434059_at response, B230312A22Rik (RIKEN cDNA B230312A22 gene)",2.26
same,"probe 1434092_at response, Atg9b (ATG9 autophagy related 9 homolog B (S. cerevisiae))",2.04
same,"probe 1434109_at response, Sh3bgrl2 (SH3 domain binding glutamic acid-rich protein like 2)",2.50
same,"probe 1434252_at response, Tmcc3 (transmembrane and coiled coil domains 3)",1.99
same,"probe 1434601_at response, Amigo2 (adhesion molecule with Ig like domain 2)",2.11
same,"probe 1434957_at response, Cdon (cell adhesion molecule-related/down-regulated by oncogenes)",0.44
same,"probe 1435066_at response, Pitpnc1 (phosphatidylinositol transfer protein, cytoplasmic 1)",2.04
same,"probe 1435176_a_at response, Id2 (inhibitor of DNA binding 2)",0.44
same,"probe 1435330_at response, Pyhin1 (pyrin and HIN domain family, member 1)",2.34
same,"probe 1435331_at response, Pyhin1 (pyrin and HIN domain family, member 1)",3.91
same,"probe 1435460_at response, Prkg2 (protein kinase, cGMP-dependent, type II)",2.07
same,"probe 1435695_a_at response, Ggct (gamma-glutamyl cyclotransferase)",2.16
same,"probe 1436100_at response, Sh2d5 (SH2 domain containing 5)",2.12
same,"probe 1436329_at response, Egr3 (early growth response 3)",2.75
same,"probe 1436584_at response, Spry2 (sprouty homolog 2 (Drosophila))",3.28
same,"probe 1436659_at response, Dclk1 (doublecortin-like kinase 1)",2.44
same,"probe 1436917_s_at response, Gpsm1 (G-protein signalling modulator 1 (AGS3-like, C. elegans))",2.22
same,"probe 1436944_x_at response, Pisd /// Pisd-ps1 ///Pisd-ps3 (phosphatidylserine decarboxylase /// phosphatidylserine decarboxylase, pseudogene 1 /// phosphatidylserine decarboxylase, pseudogene 3)",0.53
same,"probe 1437092_at response, Clip4 (CAP-GLY domain containing linker protein family, member 4)",2.37
same,"probe 1437100_x_at response, Pim3 (proviral integration site 3)",2.03
same,probe 1437199_at response,4.17
same,"probe 1437271_at response, Clcf1 (cardiotrophin-like cytokine factor 1)",2.09
same,"probe 1437486_at response, Gprc5a (G protein-coupled receptor, family C, group 5, member A)",2.49
same,"probe 1437982_x_at response, Cox15 (COX15 homolog, cytochrome c oxidase assembly protein (yeast))",0.51
same,"probe 1438038_at response, 4930402H24Rik (RIKEN cDNA 4930402H24 gene)",2.10
same,"probe 1438664_at response, Prkar2b (protein kinase, cAMP dependent regulatory, type II beta)",0.44
same,"probe 1438699_at response, Srd5a1 (steroid 5 alpha-reductase 1)",1.89
same,"probe 1439016_x_at response, Sprr2a (small proline-rich protein 2A)",0.40
same,"probe 1439109_at response, Ccdc68 (coiled-coil domain containing 68)",0.45
same,"probe 1439434_x_at response, Sh2d5 (SH2 domain containing 5)",2.06
same,"probe 1439797_at response, Ppard (peroxisome proliferator activator receptor delta)",2.09
same,"probe 1439878_at response, Ivl (involucrin)",3.09
same,"probe 1440169_x_at response, Ifnar2 (interferon (alpha and beta) receptor 2)",0.53
same,"probe 1440559_at response, Hmga2-ps1 (high mobility group AT-hook 2, pseudogene 1)",3.39
same,"probe 1441315_s_at response, Slc19a2 (solute carrier family 19 (thiamine transporter), member 2)",2.46
same,"probe 1441917_s_at response, Tmem40 (transmembrane protein 40)",2.00
same,probe 1442350_at response,2.22
same,"probe 1442363_at response, 1110012J17Rik (RIKEN cDNA 1110012J17 gene)",2.08
same,"probe 1443536_at response, Slc7a11 (solute carrier family 7 (cationic amino acid transporter, y+ system), member 11)",0.39
same,probe 1445758_at response,0.47
same,"probe 1446791_at response, Pi15 (peptidase inhibitor 15)",1.12
same,probe 1447661_at response,0.53
same,"probe 1447845_s_at response, Vnn1 (vanin 1)",0.46
same,"probe 1448364_at response, Ccng2 (cyclin G2)",2.30
same,"probe 1448532_at response, Prl8a9 (prolactin family8, subfamily a, member 9)",2.70
same,"probe 1448562_at response, Upp1 (uridine phosphorylase 1)",2.68
same,"probe 1448613_at response, Ecm1 (extracellular matrix protein 1)",2.00
same,"probe 1448617_at response, Cd53 (CD53 antigen)",2.24
same,"probe 1448810_at response, Gne (glucosamine)",2.16
same,"probe 1448855_at response, Rassf1 (Ras association (RalGDS/AF-6) domain family member 1)",1.97
same,"probe 1448894_at response, Akr1b8 (aldo-keto reductase family 1, member B8)",2.01
same,"probe 1448978_at response, Ngef (neuronal guanine nucleotide exchange factor)",3.21
same,"probe 1449038_at response, Hsd11b1 (hydroxysteroid 11-beta dehydrogenase 1)",2.96
same,"probe 1449125_at response, Tnfaip8l1 (tumor necrosis factor, alpha-induced protein 8-like 1)",2.14
same,"probe 1449133_at response, Sprr1a (small proline-rich protein 1A)",2.53
same,"probe 1449268_at response, Gfpt1 (glutamine fructose-6-phosphate transaminase 1)",2.82
same,"probe 1449297_at response, Casp12 (caspase 12)",0.41
same,"probe 1449334_at response, Timp3 (tissue inhibitor of metalloproteinase 3)",0.43
same,"probe 1449367_at response, Trex2 (three prime repair exonuclease 2)",4.45
same,"probe 1449408_at response, Jam2 (junction adhesion molecule 2)",2.04
same,"probe 1449545_at response, Fgf18 (fibroblast growth factor 18)",3.88
same,"probe 1449965_at response, Mcpt8 (mast cell protease 8)",2.83
same,"probe 1450241_a_at response, Evi2a (ecotropic viral integration site 2a)",4.78
same,"probe 1450262_at response, Clcf1 (cardiotrophin-like cytokine factor 1)",2.62
same,"probe 1450276_a_at response, Scin (scinderin)",2.73
same,"probe 1450376_at response, Mxi1 (Max interacting protein 1)",2.20
same,"probe 1450430_at response, Mrc1 (mannose receptor, C type 1)",2.66
same,"probe 1450501_at response, Itga2 (integrin alpha 2)",3.02
same,"probe 1450791_at response, Nppb (natriuretic peptide precursor type B)",4.55
same,"probe 1450976_at response, Ndrg1 (N-myc downstream regulated gene 1)",2.23
same,"probe 1451006_at response, Xdh (xanthine dehydrogenase)",0.40
same,"probe 1451308_at response, Elovl4 (elongation of very long chain fatty acids (FEN1/Elo2, SUR4/Elo3, yeast)-like 4)",2.50
same,"probe 1451446_at response, Antxr1 (anthrax toxin receptor 1)",0.41
same,"probe 1451501_a_at response, Ghr (growth hormone receptor)",2.21
same,"probe 1451529_at response, Sgtb (small glutamine-rich tetratricopeptide repeat (TPR)-containing, beta)",1.91
same,"probe 1451798_at response, Il1rn (interleukin 1 receptor antagonist)",3.05
same,"probe 1452058_a_at response, Rnfl1 (ring finger protein 11)",2.07
same,"probe 1452087_at response, Epsti1 (epithelial stromal interaction 1 (breast))",2.20
same,"probe 1452203_at response, Obfc2a (oligonucleotide/oligosaccharide-binding fold containing 2A)",2.07
same,"probe 1452521_a_at response, Plaur (plasminogen activator, urokinase receptor)",2.33
same,"probe 1453055_at response, Sema6d (sema domain, transmembrane domain (TM), and cytoplasmic domain, (semaphorin) 6D)",3.32
same,"probe 1453278_a_at response, Clip4 (CAP-GLY domain containing linker protein family, member 4)",2.00
same,"probe 1453345_at response, Nipal1 (NIPA-like domain containing 1)",3.86
same,"probe 1454048_a_at response, 4931408A02Rik /// LOC630876 (RIKEN cDNA 4931408A02 gene /// similar to Protein C21orf63 homolog precursor)",0.40
same,"probe 1454254_s_at response, 1600029D21Rik (RIKEN cDNA 1600029D21 gene)",2.37
same,"probe 1454649_at response, Srd5a1 (steroid 5 alpha-reductase 1)",2.02
same,"probe 1454699_at response, LOC100047324 /// Sesn1 (similar to Sesn1 protein /// sestrin 1)",0.50
same,"probe 1454710_at response, Spink2 (serine peptidase inhibitor, Kazal type 2)",2.39
same,"probe 1454780_at response, Galntl4 (UDP-N-acetyl-alpha-D-galactosamine:polypeptide N-acetylgalactosaminyltransferase-like 4)",0.42
same,"probe 1454877_at response, Sertad4 (SERTA domain containing 4)",0.40
